Measured values: patent US6803374B2, “Compounds useful for treating hepatitis C virus” (priority 2001, dated 2004)

Each molecule was assayed against T1, HCV NS5B RdRp genotype 1b (Hepatitis C virus genotype 1b, UniProt Q9WMX2) (assay: HCV NS5B RdRp enzyme assay). Conditions: IC50, HCV RdRp genotype 1b enzyme, C-terminal 18 aa truncated; average of single point IC50 values.
T1 construct: The protein was expressed with an 18 amino acid C-terminal truncation to enhance the solubility; made in house; host or cells: E. coli BL21(DE3)
Format: biochemical

T1 sequence (Q9WMX2 2420-2992): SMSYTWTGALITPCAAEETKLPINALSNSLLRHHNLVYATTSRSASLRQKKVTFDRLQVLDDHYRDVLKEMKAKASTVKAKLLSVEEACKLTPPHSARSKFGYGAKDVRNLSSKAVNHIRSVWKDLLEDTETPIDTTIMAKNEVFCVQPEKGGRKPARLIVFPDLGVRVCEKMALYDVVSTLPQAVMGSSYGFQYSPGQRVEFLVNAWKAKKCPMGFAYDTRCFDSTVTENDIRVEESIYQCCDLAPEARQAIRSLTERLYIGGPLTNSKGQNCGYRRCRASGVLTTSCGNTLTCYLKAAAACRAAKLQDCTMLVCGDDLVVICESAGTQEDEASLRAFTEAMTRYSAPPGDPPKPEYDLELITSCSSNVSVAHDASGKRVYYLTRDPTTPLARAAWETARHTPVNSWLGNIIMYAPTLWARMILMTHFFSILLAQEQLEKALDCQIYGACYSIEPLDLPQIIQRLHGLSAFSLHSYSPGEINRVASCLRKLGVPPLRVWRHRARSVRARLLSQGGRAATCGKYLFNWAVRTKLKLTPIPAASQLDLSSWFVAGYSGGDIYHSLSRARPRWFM

| Structure (SMILES) | IC50 [nM] |
| --- | --- |
| O=C(O)c1ccc(-c2cccc3cccnc23)c(COc2ccc(-c3nc4cc(-c5nnn[nH]5)ccc4n3C3CCCCC3)cc2)c1 [Example 123] | 440 |
| O=C(NC(Cc1ccc(O)cc1)C(=O)O)c1ccc(-c2ccsc2)c(COc2ccc(-c3nc4cc(-c5nnn[nH]5)ccc4n3C3CCCCC3)cc2)c1 (centres unmarked) [Example 129] | 290 |
| NC(=O)CCNC(=O)c1ccc(-c2ccsc2)c(COc2ccc(-c3nc4cc(-c5nnn[nH]5)ccc4n3C3CCCCC3)cc2)c1 [Example 131] | 230 |
| CN1CCN(C(=O)c2ccc(-c3ccsc3)c(COc3ccc(-c4nc5cc(-c6nnn[nH]6)ccc5n4C4CCCCC4)cc3)c2)CC1 [Example 132] | 830 |
| O=C(c1ccc(-c2ccsc2)c(COc2ccc(-c3nc4cc(-c5nnn[nH]5)ccc4n3C3CCCCC3)cc2)c1)N1CCOCC1 [Example 133] | 1100 |
| O=C(c1ccc(-c2ccsc2)c(COc2ccc(-c3nc4cc(-c5nnn[nH]5)ccc4n3C3CCCCC3)cc2)c1)N1CCCC1 [Example 134] | 370 |
| O=C(NCCCO)c1ccc(-c2ccsc2)c(COc2ccc(-c3nc4cc(-c5nnn[nH]5)ccc4n3C3CCCCC3)cc2)c1 [Example 135] | 700 |
| CNC(=O)c1ccc(-c2ccsc2)c(COc2ccc(-c3nc4cc(-c5nnn[nH]5)ccc4n3C3CCCCC3)cc2)c1 [Example 136] | 220 |
| O=C(c1ccc(-c2ccsc2)c(COc2ccc(-c3nc4cc(-c5nnn[nH]5)ccc4n3C3CCCCC3)cc2)c1)N1CCC(O)CC1 [Example 137] | 1300 |
| O=C(c1ccc(-c2ccsc2)c(COc2ccc(-c3nc4cc(-c5nnn[nH]5)ccc4n3C3CCCCC3)cc2)c1)N(CCO)CCO [Example 138] | 3000 |
| CC(C)(C)OC(=O)C(Cc1ccc(O)cc1)NC(=O)c1ccc(-c2ccsc2)c(COc2ccc(-c3nc4cc(-c5nnn[nH]5)ccc4n3C3CCCCC3)cc2)c1 (centres unmarked) [Example 140] | 2150 |
| CC(C)(C)OC(=O)CNC(=O)c1ccc(-c2ccsc2)c(COc2ccc(-c3nc4cc(-c5nnn[nH]5)ccc4n3C3CCCCC3)cc2)c1 [Example 141] | 2800 |
| O=C(O)CNC(=O)c1ccc(-c2ccsc2)c(COc2ccc(-c3nc4cc(-c5nnn[nH]5)ccc4n3C3CCCCC3)cc2)c1 [Example 143] | 80 |
| N#Cc1ccc(-c2ccc(C(=O)N3CCC(O)CC3)cc2COc2ccc(-c3nc4cc(-c5nnn[nH]5)ccc4n3C3CCCCC3)cc2)cc1 [Example 149] | 220 |
| CN(C)C(=O)c1ccc(-c2ccc3[nH]cc(C(=O)C(F)(F)F)c3c2)c(COc2ccc(-c3nc4cc(-c5nnn[nH]5)ccc4n3C3CCCCC3)cc2)c1 [Example 152] | 420 |
| O=C(O)CNC(=O)c1ccc(-c2ccc3[nH]cc(C(=O)C(F)(F)F)c3c2)c(COc2ccc(-c3nc4cc(-c5nnn[nH]5)ccc4n3C3CCCCC3)cc2)c1 [Example 153] | 260 |
| NC(=O)CCNC(=O)c1ccc(-c2ccc3[nH]cc(C(=O)C(F)(F)F)c3c2)c(COc2ccc(-c3nc4cc(-c5nnn[nH]5)ccc4n3C3CCCCC3)cc2)c1 [Example 155] | 270 |
